For 24 molecules, IC50 results are on record in patent publication US10040802B2, “Thienopyrazine inhibitors of IRAK4 activity” (MERCK SHARP & DOHME CORP., priority 2015, dated 2018).

Structures are written as SMILES. Structures can show the parent of a compound that is named as a salt.

For orientation: IC50 means the point on the concentration scale where inhibition reaches its midpoint.

In this assay the target is GST tagged IRAK4 (Homo sapiens (Human), UniProt Q9NWZ3). Briefly: IRAK4 Kinase Assay (IMAP fluorescence polarization). Format: biochemical. To be noted: 0.5 nM GST tagged IRAK4, 100 μM ATP, 30 minutes at 25° C. The method, then: The kinase activity of IRAK4 is determined by its ability to catalyze the phosphorylation of a fluorescent polypeptide substrate. The extent of phosphorylation is measured using the IMAP technology (Molecular Devices) where the phosphorylated fluorescent substrate binds to the large M(III)-based nanoparticles which reduces the rotational speed of the substrate and thus increases its fluorescent polarization (FP).
Chain of GST tagged IRAK4 (Q9NWZ3 whole entry): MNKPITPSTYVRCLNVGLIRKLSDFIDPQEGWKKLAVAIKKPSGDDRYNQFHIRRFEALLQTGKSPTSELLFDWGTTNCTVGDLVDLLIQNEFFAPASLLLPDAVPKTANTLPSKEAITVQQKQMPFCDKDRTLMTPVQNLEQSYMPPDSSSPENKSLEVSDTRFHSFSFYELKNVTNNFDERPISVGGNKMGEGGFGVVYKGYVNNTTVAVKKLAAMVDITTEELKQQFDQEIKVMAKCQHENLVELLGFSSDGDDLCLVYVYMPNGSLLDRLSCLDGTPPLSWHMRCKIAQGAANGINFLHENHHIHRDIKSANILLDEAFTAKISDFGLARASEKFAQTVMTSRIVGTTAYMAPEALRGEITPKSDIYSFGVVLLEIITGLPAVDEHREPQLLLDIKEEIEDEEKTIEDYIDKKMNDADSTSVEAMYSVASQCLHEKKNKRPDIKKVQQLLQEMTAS
20 μL reaction mixture contains 10 mM TriHCl, pH 7.2, 0.5 nM GST tagged IRAK4 (SignalChem), 100 nM fluorescent peptide substrate (RP7030, Molecular Devices), 100 μM ATP, 1 mM DDT, 1 mM MgCl2, and 0.01% Tween 20. The reaction is initiated by the addition of ATP. After incubation for 30 minutes at 25° C., 60 μL of Progressive IMAP Reagent (Molecular Devices) is added to stop the reaction. Change in RP7030's FP is determined by a FP reader (Analyst HT, LJL BioSystems).
In general terms: Polarisation of emitted light reports the rotation of a fluorescent probe.
Regarding `Cn1cc(NC(=O)c2csc3ncc(N4C[C@@H]5CC[C@H]4CN5)nc23)c(Cl)n1` (single isomer, unassigned) [Example 16, N-(3-chloro-1-methyl-1H-pyrazol-4-yl)-2-[(1S,4S)- or (1R,4R)-2,5-diazabicyclo[2.2.2]oct-2-yl]thieno[2,3-b] pyrazine-7-carboxamide trifluoroacetate], the midpoint of inhibition, the IC50, lay at 73 nM.

`Cn1cc(NC(=O)c2csc3ncc(N4C[C@H]5CC[C@@H]4CN5)nc23)c(Cl)n1` (single isomer, unassigned) [Example 17, N-(3-chloro-1-methyl-1H-pyrazol-4-yl)-2-[(1S,4S)- or (1R,4R)-2,5-diazabicyclo[2.2.2]oct-2-yl]thieno[2,3-b] pyrazine-7-carboxamide trifluoroacetate]: the IC50 was 15 nM.

For the molecule `Cn1cc(NC(=O)c2csc3ncc(N4C[C@@H]5CC[C@H]4CN5)nc23)c(Br)n1` (single isomer, unassigned) [Example 19, N-(3-bromo-1-methyl-1H-pyrazol-4-yl)-2-[(1S,4S)- or (1R,4R)-2,5-diazabicyclo[2.2.2]oct-2-yl]thieno[2,3-b] pyrazine-7-carboxamide trifluoroacetate], the 50% inhibitory concentration (IC50) is 70 nM.

As for `Cn1cc(NC(=O)c2csc3ncc(N4C[C@H]5CC[C@@H]4CN5)nc23)c(Br)n1` (single isomer, unassigned) [Example 20, N-(3-bromo-1-methyl-1H-pyrazol-4-yl)-2-[(1S,4S)- or (1R,4R)-2,5-diazabicyclo[2.2.2]oct-2-yl]thieno[2,3-b] pyrazine-7-carboxamide trifluoroacetate], half-maximal inhibition (IC50) required 19 nM.

Take `Cn1cc(NC(=O)c2csc3ncc(N4C[C@@H]5CC[C@H]4CN5)nc23)c(C(F)F)n1` (single isomer, unassigned) [Example 22, 2-[(1S,4S)- or (1R,4R)-2,5-diazabicyclo[2.2.2]oct-2-yl]-N-[3-(difluoromethyl)-1-methyl-1H-pyrazol-4-yl]thieno[2,3-b] pyrazine-7-carboxamide trifluoroacetate]: 7 nM corresponded to half-maximal inhibition (IC50).

In the case of `Cn1cc(NC(=O)c2csc3ncc(N4C[C@H]5CC[C@@H]4CN5)nc23)c(C(F)F)n1` (single isomer, unassigned) [Example 23, 2-[(1S,4S)- or (1R,4R)-2,5-diazabicyclo[2.2.2]oct-2-yl]-N-[3-(difluoromethyl)-1-methyl-1H-pyrazol-4-yl]thieno[2,3-b] pyrazine-7-carboxamide trifluoroacetate], 1 nM corresponded to half-maximal inhibition (IC50).

With `Cn1cc(NC(=O)c2csc3ncc(N4C[C@@H]5CC[C@H]4CN5)nc23)c(C#N)n1` (single isomer, unassigned) [Example 26, N-(3-cyano-1-methyl-1H-pyrazol-4-yl)-2-[(1S,4S)- or (1R,4R)-2,5-diazabicyclo[2.2.2]oct-2-yl]thieno[2,3-b] pyrazine-7-carboxamide trifluoroacetate], the 50% inhibitory concentration (IC50) came out at 46 nM.

Take `Cn1cc(NC(=O)c2csc3ncc(N4C[C@H]5CC[C@@H]4CN5)nc23)c(C#N)n1` (single isomer, unassigned) [Example 27, N-(3-cyano-1-methyl-1H-pyrazol-4-yl)-2-[(1S,4S)- or (1R,4R)-2,5-diazabicyclo[2.2.2]oct-2-yl]thieno[2,3-b] pyrazine-7-carboxamide trifluoroacetate]: inhibition was half-maximal at 37 nM (IC50).

As for `Cn1cc(NC(=O)c2csc3ncc(N[C@H]4CCCCNC4)nc23)c(C(F)(F)F)n1` (single isomer, unassigned) [Example 31, 2-[(3S)- or (3R)-azepan-3-ylamino]-N-[1-methyl-3-(trifluoromethyl)-1H-pyrazol-4-yl] thieno[2,3-b] pyrazine-7-carboxamide trifluoroacetate], half-maximal inhibition (IC50) required 7 nM.

In the case of `Cn1cc(NC(=O)c2csc3ncc(N[C@@H]4CCCCNC4)nc23)c(C(F)F)n1` (single isomer, unassigned) [Example 33, 2-[(3S)- or (3R)-azepan-3-ylamino]-N-[3-(difluoromethyl)-1-methyl-1H-pyrazol-4-yl]thieno[2,3-b] pyrazine-7-carboxamide trifluoroacetate], half-maximal inhibition (IC50) was put at 0.2 nM.

`Cn1cc(NC(=O)c2csc3ncc(N[C@H]4CCCCNC4)nc23)c(C(F)F)n1` (single isomer, unassigned) [Example 34, 2-[(3S)- or (3R)-azepan-3-ylamino]-N-[3-(difluoromethyl)-1-methyl-1H-pyrazol-4-yl]thieno[2,3-b] pyrazine-7-carboxamide trifluoroacetate] gave an IC50 of 2 nM.

In turn, `Cn1cc(NC(=O)c2csc3ncc(N[C@@H]4CCCCNC4)nc23)c(C(F)(F)F)n1` (single isomer, unassigned) [Example 38, 2-[(3S)- or (3R)-azepan-3-ylamino]-N-[1-methyl-3-(trifluoromethyl)-1H-pyrazol-4-yl]thieno[2,3-b] pyrazine-7-carboxamide trifluoroacetate] yielded a half-inhibitory concentration (IC50) of 0.6 nM.

On to `O=C(Nc1cscc1Br)c1csc2ncc(N3C[C@@H]4CC[C@H]3CN4)nc12` (single isomer, unassigned) [Example 46, N-(4-bromothiophen-3-yl)-2-[(1S,4S)- or (1R,4R)-2,5-diazabicyclo[2.2.2]oct-2-yl]thieno[2,3-b] pyrazine-7-carboxamide], for which the IC50 is 812 nM.

As for `O=C(Nc1cscc1Br)c1csc2ncc(N3C[C@H]4CC[C@@H]3CN4)nc12` (single isomer, unassigned) [Example 49, N-(4-bromothiophen-3-yl)-2-[(1S,4S)- or (1R,4R)-2,5-diazabicyclo[2.2.2]oct-2-yl]thieno[2,3-b] pyrazine-7-carboxamide trifluoroacetate], it took 213 nM to reach half-maximal inhibition (IC50).

Molecule `O=C(Nc1cscc1C(F)F)c1csc2ncc(N3C[C@@H]4CC[C@H]3CN4)nc12` (single isomer, unassigned) [Example 58, 2-[(1S,4S)- or (1R,4R)-2,5-diazabicyclo [2.2.2]oct-2-yl]-N-[4-(difluoromethyl)thiophen-3-yl] thieno[2,3-b] pyrazine-7-carboxamide trifluoroacetate] came in with a concentration for half-maximal inhibition (IC50) of 285 nM.

As to `O=C(Nc1cscc1C(F)F)c1csc2ncc(N3C[C@H]4CC[C@@H]3CN4)nc12` (single isomer, unassigned) [Example 59, 2-[(1S,4S)- or (1R,4R)-2,5-diazabicyclo [2.2.2]oct-2-yl]-N-[4-(difluoromethyl)thiophen-3-yl] thieno[2,3-b] pyrazine-7-carboxamide trifluoroacetate], the IC50 came to 21 nM.

Regarding `O=C(Nc1ccsc1Cl)c1csc2ncc(N3C[C@@H]4CC[C@H]3CN4)nc12` (single isomer, unassigned) [Example 61, N-(2-chlorothiophen-3-yl)-2-[(1S,4S)- or (1R,4R)-2,5-diazabicylo[2.2.2]oct-2-yl]thieno[2,3-b] pyrazine-7-carboxamide trifluoroacetate], the half-maximal inhibitory concentration (IC50) came out at 689 nM.

Take `O=C(Nc1ccsc1Cl)c1csc2ncc(N3C[C@H]4CC[C@@H]3CN4)nc12` (single isomer, unassigned) [Example 62, N-(2-chlorothiophen-3-yl)-2-[(1S,4S)- or (1R,4R)-2,5-diazabicylo[2.2.2]oct-2-yl]thieno[2,3-b] pyrazine-7-carboxamide trifluoroacetate]: half-maximal inhibition (IC50) required 274 nM.

For `O=C(Nc1ccsc1Br)c1csc2ncc(N3C[C@@H]4CC[C@H]3CN4)nc12` (single isomer, unassigned) [Example 63, N-(2-bromothiophen-3-yl)-2-[(1S,4S)- or (1R,4R)-2,5-diazabicylo[2.2.2]oct-2-yl]thieno[2,3-b] pyrazine-7-carboxamide trifluoroacetate], the 50% inhibitory concentration (IC50) came out at 324 nM.

Consider `O=C(Nc1ccsc1Br)c1csc2ncc(N3C[C@H]4CC[C@@H]3CN4)nc12` (single isomer, unassigned) [Example 64, N-(2-bromothiophen-3-yl)-2-[(1S,4S)- or (1R,4R)-2,5-diazabicylo[2.2.2]oct-2-yl]thieno[2,3-b] pyrazine-7-carboxamide trifluoroacetate], for which the IC50 was found to be 767 nM.

For the molecule `N#Cc1cscc1NC(=O)c1csc2ncc(N3C[C@@H]4CC[C@H]3CN4)nc12` (single isomer, unassigned) [Example 65, N-(4-cyanothiophen-3-yl)-2-[(1S,4S)- or (1R,4R)-2,5-diazabicylo[2.2.2]oct-2-yl]thieno[2,3-b] pyrazine-7-carboxamide formate], the IC50 was 310 nM.

In turn, `N#Cc1cscc1NC(=O)c1csc2ncc(N3C[C@H]4CC[C@@H]3CN4)nc12` (single isomer, unassigned) [Example 66, N-(4-cyanothiophen-3-yl)-2-[(1S,4S)- or (1R,4R)-2,5-diazabicylo[2.2.2]oct-2-yl]thieno[2,3-b] pyrazine-7-carboxamide formate] gave an IC50 of 220 nM.

`N#Cc1sccc1NC(=O)c1csc2ncc(N3C[C@@H]4CC[C@H]3CN4)nc12` (single isomer, unassigned) [Example 69, N-(2-cyanothiophen-3-yl)-2-[(1S,4S)- or (1R,4R)-2,5-diazabicyclo[2.2.2]oct-2-yl]thieno[2,3-b] pyrazine-7-carboxamide trifluoroacetate] came in with a concentration for half-maximal inhibition (IC50) of 228 nM.

Take `N#Cc1sccc1NC(=O)c1csc2ncc(N3C[C@H]4CC[C@@H]3CN4)nc12` (single isomer, unassigned) [Example 70, N-(2-cyanothiophen-3-yl)-2-[(1S,4S)- or (1R,4R)-2,5-diazabicyclo[2.2.2]oct-2-yl]thieno[2,3-b] pyrazine-7-carboxamide trifluoroacetate]: the 50% inhibitory concentration (IC50) was found to be 224 nM.
